Our source for the IC50 values is patent US9340577B2, “HLA binding motifs and peptides and their uses” (priority 1992, dated 2016).

What all share (experiment): biochemical
For one assay, the target named is DR1 (DRB1*0101) (Homo sapiens, UniProt P01903+P01911, A100R/D57E/F55L/F60I/F76Y/I96L/L162R/M171V/P40L/Q125E/R42F/V115G/Y59C). The class given is binding.
The next assay concerns the target DRB1*1101 (Homo sapiens, UniProt P01903+P01911, A100R/A169T/A87E/I96F/K41T/L162R/M171V/P40S/Q125H/Q178H/Q39Y/Q99D/R42S/S66Y/T262R/V115G/W38E). As to conditions: Binding affinity DRB1 *1101.
For a further assay, the target named is DRB1*0405 (Homo sapiens, UniProt P01903+P01911, A100R/A169T/D86S/F76Y/I96L/K127E/L162R/M171V/N62H/P40V/Q125Y/R42H/S133A/S149N/S66Y/V115G/V209L/W38E). The class given is binding.
The target of another assay is DRB1*1501 (Homo sapiens, UniProt P01903+P01911). The class given is binding.
In a further assay the target is DRB1*0802 (Homo sapiens, UniProt P01903+P01911, A100R/A103L/A169T/F76Y/H45Y/I96F/K41T/L162R/M171V/P40S/Q125H/Q178H/Q39Y/Q99D/R218S/R42G/S66Y/V115G/W38E). Type of assay: binding.
In the next assay the target is DRB1*0901 (Homo sapiens, UniProt P01903+P01911, A100R/A103E/D57H/D86V/F55Y/F60I/F76Y/I96F/K127E/L162R/M171V/P40D/Q125H/Q99R/R33Q/R42F/S133A/S66N/T210M/V115G/W38K/Y107V/Y59G/Y89S). Type of assay: binding.
Another assay concerns the target DR4w4 (DRB1*0401) (Homo sapiens, UniProt P01903+P01911, A100K/A169T/F76Y/I96L/K127E/L162R/M171V/N62H/P40V/Q125Y/R42H/S133A/S149N/S66Y/V115G/V209L/W38E). Type of assay: binding.
For the next assay, the target named is DRB5*0101 (Homo sapiens, UniProt P01903+Q30154). As to conditions: Binding affinity DRB5 *0101.
For a further assay, the target named is DR7 (DRB1*0701) (Homo sapiens, UniProt P01903+P01911, A100R/A102G/A103Q/D57E/D86V/E43K/F76Y/K127E/L162R/M171V/P40G/Q125H/Q99D/R33Q/R42Y/R54Q/S133A/S66F/T210M/V115G/Y107V/Y59L/Y89S). The class given is binding.
The target in the next assay is DRB4*0101 (Homo sapiens, UniProt P01903+P13762, G164S). The class given is binding.
The target in another assay is DRB1*1302 (Homo sapiens, UniProt P01903+P01911, A100E/A169T/K41T/L162R/M171V/P40S/Q125H/Q178H/Q39Y/Q99D/R42S/S66N/T262R/V115G/W38E/Y61H). Type of assay: binding.
Sequence of DRB1*1302 (P01903 26-254 limits assumed, other chains not shown): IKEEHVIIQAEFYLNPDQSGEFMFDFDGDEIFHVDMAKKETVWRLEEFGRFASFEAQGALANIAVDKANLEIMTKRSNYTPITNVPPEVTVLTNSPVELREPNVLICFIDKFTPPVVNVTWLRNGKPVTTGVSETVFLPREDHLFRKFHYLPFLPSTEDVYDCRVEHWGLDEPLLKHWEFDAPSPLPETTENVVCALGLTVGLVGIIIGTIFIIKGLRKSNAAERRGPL

pIC50: −log10 of the molar value. No end group written: not given here. A value given as a limit tells only on which side of the number the result lay.

Sequence of DRB1*1101 (P01903 26-254 limits assumed, other chains not shown): as above

As usually defined, the pIC50 is the IC50 on a negative log10 scale, so that one unit is a factor of ten. Read a low pIC50 as a high IC50. With ITHIGHQVVPPMAVS [Peptide 90.0010], the pIC50 at DR1 (DRB1*0101) was 7.30; on DRB1*1101 it was less than 4.70; against DRB1*0405 it was 4.77; against DRB1*1501, 5.00; against DRB1*0802 it was 4.91; against DRB1*0901, less than 4.70. Besides, the negative logarithm of the IC50 (pIC50) was 6.63 on DR4w4 (DRB1*0401), less than 4.70 on DRB5*0101, 5.30 against DR7 (DRB1*0701) and 5.91 against DRB4*0101.

For LLQLKCPPILLTSNI [Peptide 89.0091], the negative-log IC50 (pIC50) against DR1 (DRB1*0101) is 7.43; at DRB1*1101, less than 4.70; against DRB1*0405 it was less than 4.70; against DRB1*0802, 5.14; against DRB1*0901, less than 4.70; at DR4w4 (DRB1*0401), 5.84. Further, the pIC50 at DRB5*0101 is less than 4.70; on DR7 (DRB1*0701), 6.21; at DRB4*0101, 6.91.

For the molecule PEWIEQQTVLQHSFD [Peptide 89.0105], the negative logarithm of the IC50 (pIC50) at DRB1*0405 is 5.25; against DRB1*1501, 4.95; on DR7 (DRB1*0701), 5.21; against DRB1*1302 it was 5.88; against DRB4*0101 it was 6.01.

Regarding TPEWIDRLTVLQHSF [Peptide 89.0069], the negative-log IC50 (pIC50) was 4.84 at DR1 (DRB1*0101); 6.01 at DRB1*0405; 5.42 on DRB1*1501; 6.56 against DRB1*0802; less than 4.70 at DRB1*0901; less than 4.70 on DRB5*0101. The figures for the negative-log IC50 (pIC50) at DR7 (DRB1*0701), against DRB1*1302 and against DRB4*0101 were 5.28, 5.05 and 6.91, respectively.

For the molecule TLAVSKNKALQAIEL [Peptide 89.0150], the pIC50 was less than 4.70 at DRB1*1101; 5.78 against DRB1*0405; less than 4.70 against DRB1*1501; less than 4.70 at DRB1*0802; 5.28 at DRB1*0901; less than 4.70 against DR4w4 (DRB1*0401). Also, the pIC50 at DRB5*0101 was less than 4.70; against DR7 (DRB1*0701), less than 4.70; against DRB4*0101 it was 7.44.

Turning to DWCIIGMGVTPSVAE [Peptide 89.0096], the pIC50 at DR1 (DRB1*0101) was less than 4.70; on DRB1*1101 it was less than 4.70; on DRB1*0405, less than 4.70; against DRB1*1501, 5.08; against DRB1*0802, less than 4.70; at DRB1*0901 it was less than 4.70. In addition, the pIC50 on DRB5*0101 is less than 4.70; at DR7 (DRB1*0701), 5.58; at DRB1*1302 it was 5.36; against DRB4*0101 it was 6.72.

For HQVVPALSVSKAKAL [Peptide 89.0169], the pIC50 on DR1 (DRB1*0101) was 7.00; at DRB1*1101 it was less than 4.70; at DRB1*0405 it was 4.81; at DRB1*1501, less than 4.70; on DRB1*0802 it was less than 4.70; on DRB1*0901, 5.79. The pIC50 against DR4w4 (DRB1*0401) is 6.40; at DRB5*0101, less than 4.70; against DR7 (DRB1*0701) it was 5.33; against DRB4*0101, less than 4.70.

On to GQVIVFPESVFSSDE [Peptide 89.0173], for which the pIC50 at DRB1*1101 was less than 4.70; at DRB1*0405, less than 4.70; against DRB1*1501 it was less than 4.70; against DRB1*0802 it was 5.67; on DRB1*0901, less than 4.70; on DRB5*0101, less than 4.70. Besides, the negative-log IC50 (pIC50) against DR7 (DRB1*0701), on DRB1*1302 and at DRB4*0101 was less than 4.70 in each case.

On to FLSYFKLFLQGTPKH [Peptide 89.0132], for which the negative-log IC50 (pIC50) was less than 4.70 on DR1 (DRB1*0101); less than 4.70 at DRB1*1101; 5.11 against DRB1*0405; less than 4.70 against DRB1*1501; less than 4.70 at DRB1*0802; less than 4.70 on DRB5*0101. The pIC50 is less than 4.70 on DR7 (DRB1*0701), 5.89 against DRB1*1302 and 8.06 at DRB4*0101.

As to TPEWIEQQTVLQHSF [Peptide 89.0104], the pIC50 was 6.02 at DR1 (DRB1*0101); less than 4.70 at DRB1*1101; 5.54 on DRB1*0405; 4.88 against DRB1*1501; 4.85 against DRB1*0802; less than 4.70 against DRB1*0901. The pIC50 on DRB5*0101 is 5.26; on DR7 (DRB1*0701), less than 4.70; at DRB1*1302, less than 4.70; against DRB4*0101, less than 4.70.

Regarding `CC(C)[C@H](NC(=O)[C@H](CO)NC(=O)[C@@H](NC(=O)[C@@H](N)[C@@H](C)O)C(C)C)C(=O)NCC(=O)N[C@H](C(=O)N[C@@H](C)C(=O)N[C@@H](CCCCN)C(=O)N[C@H](C(=O)N[C@@H](Cc1ccc(O)cc1)C(=O)NCC(=O)N[C@@H](CCC(N)=O)C(=O)N[C@H](C(=O)N[C@@H](CO)C(=O)N[C@@H](C)C(=O)O)[C@@H](C)O)[C@@H](C)O)[C@@H](C)O` [Peptide 89.0163], the pIC50 against DR1 (DRB1*0101) was less than 4.70; at DRB1*1101, less than 4.70; against DRB1*0405, 5.63; against DRB1*1501 it was 5.06; on DRB1*0802, less than 4.70; at DRB1*0901 it was less than 4.70. The pIC50 on DRB5*0101 was less than 4.70; against DR7 (DRB1*0701), less than 4.70; at DRB1*1302, less than 4.70; at DRB4*0101, 6.64.

For the molecule `CC[C@H](C)[C@H](NC(=O)[C@H](C)NC(=O)[C@H](CCCCN)NC(=O)[C@@H](N)Cc1c[nH]cn1)C(=O)N[C@@H](CCC(=O)O)C(=O)N[C@@H](CC(C)C)C(=O)N[C@@H](CCC(N)=O)C(=O)N[C@@H](CCSC)C(=O)N[C@@H](C)C(=O)N[C@@H](CC(C)C)C(=O)N[C@@H](CCC(N)=O)C(=O)NCC(=O)N[C@@H](CC(C)C)C(=O)N[C@@H](C)C(=O)N[C@@H](CCC(N)=O)C(=O)O` [Peptide 89.0160], the negative logarithm of the IC50 (pIC50) on DR1 (DRB1*0101) was less than 4.70; at DRB1*1101, 4.77; at DRB1*0405, less than 4.70; on DRB1*1501, 5.89; on DRB1*0802, less than 4.70; on DRB1*0901 it was less than 4.70. For the same molecule, the negative-log IC50 (pIC50) at DR4w4 (DRB1*0401) is 6.46; at DRB5*0101 it was less than 4.70; against DR7 (DRB1*0701), less than 4.70; at DRB4*0101 it was 5.46.

As to SWGMVVLLLVRYKCG [Peptide 89.0005], the pIC50 is 5.68 on DRB1*1101; 6.40 at DRB1*0405; 5.38 on DRB1*1501; less than 4.70 against DRB1*0802; 6.11 against DRB1*0901; 5.33 at DR4w4 (DRB1*0401). For the same molecule, the negative logarithm of the IC50 (pIC50) at DRB5*0101 is less than 4.70; against DRB4*0101, 5.38.

In the case of DSDIAYYYAQLADSN [Peptide 89.0071], the pIC50 at DR1 (DRB1*0101) is 6.70; at DRB1*1101 it was 5.04; against DRB1*0405, 5.22; on DRB1*1501, 7.89; at DRB1*0901 it was 5.63; at DRB5*0101, less than 4.70. The pIC50 is 5.38 against DR7 (DRB1*0701), less than 4.70 on DRB1*1302 and 6.01 against DRB4*0101.

For HQVVPSLVASKTKAF [Peptide 90.0023], the pIC50 on DR1 (DRB1*0101), at DRB1*1101, at DRB1*0405, against DRB1*1501, at DRB1*0802 and against DRB1*0901 was less than 4.70 each time. Further, the negative logarithm of the IC50 (pIC50) on DR4w4 (DRB1*0401) is less than 4.70; on DRB5*0101 it was less than 4.70; against DR7 (DRB1*0701), 5.56; against DRB4*0101 it was less than 4.70.

Turning to LIRMECALLYTAKQM [Peptide 89.0179], the negative logarithm of the IC50 (pIC50) is 6.00 at DR1 (DRB1*0101); less than 4.70 on DRB1*1101; less than 4.70 against DRB1*0405; less than 4.70 on DRB1*1501; less than 4.70 against DRB1*0802; less than 4.70 against DRB1*0901. Also, the negative logarithm of the IC50 (pIC50) on DRB5*0101 was less than 4.70; against DR7 (DRB1*0701), 5.13; at DRB1*1302 it was less than 4.70; at DRB4*0101, less than 4.70.
